Here are results for four compounds from patent US6316482A, “Benzamide derivatives having a vasopressin antagonistic activity” (Fujisawa Pharmaceutical Co., Ltd., priority 1996, dated 2001).

Structures can show the parent of a compound that is named as a salt.

Experiment [1] deals with Vasopressin 1 (V1) receptor (Homo sapiens, UniProt P37288). Kind of experiment: Vasopressin 1 (V1) receptor binding. The note with it: platelet membranes from normal subjects; competition vs 1.5 nM 3H-vasopressin; 15 minutes at 30° C.; pH 7.4.
Vasopressin 1 (V1) receptor, sequence (P37288 whole entry): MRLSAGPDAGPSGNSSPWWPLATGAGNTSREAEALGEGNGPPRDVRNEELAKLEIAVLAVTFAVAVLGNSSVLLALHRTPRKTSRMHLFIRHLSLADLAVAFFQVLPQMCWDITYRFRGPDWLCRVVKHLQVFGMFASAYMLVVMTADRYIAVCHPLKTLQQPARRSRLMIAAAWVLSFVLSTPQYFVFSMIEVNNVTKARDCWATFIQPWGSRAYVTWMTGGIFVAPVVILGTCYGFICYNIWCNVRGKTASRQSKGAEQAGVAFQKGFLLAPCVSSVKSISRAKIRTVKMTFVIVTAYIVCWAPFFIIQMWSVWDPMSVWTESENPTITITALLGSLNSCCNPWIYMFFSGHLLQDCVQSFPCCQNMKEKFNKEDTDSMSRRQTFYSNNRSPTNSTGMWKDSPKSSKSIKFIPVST
Another experiment addresses human V2 receptor (Homo sapiens, UniProt P30518). Kind of experiment: Vasopressin 2 (V2) receptor binding. The note with it: membranes of CHO cells expressing human V2 receptor; competition vs 0.5 nM 3H-vasopressin; 2 hours at 22° C.; pH 7.4.

human V2 receptor, sequence (P30518 whole entry): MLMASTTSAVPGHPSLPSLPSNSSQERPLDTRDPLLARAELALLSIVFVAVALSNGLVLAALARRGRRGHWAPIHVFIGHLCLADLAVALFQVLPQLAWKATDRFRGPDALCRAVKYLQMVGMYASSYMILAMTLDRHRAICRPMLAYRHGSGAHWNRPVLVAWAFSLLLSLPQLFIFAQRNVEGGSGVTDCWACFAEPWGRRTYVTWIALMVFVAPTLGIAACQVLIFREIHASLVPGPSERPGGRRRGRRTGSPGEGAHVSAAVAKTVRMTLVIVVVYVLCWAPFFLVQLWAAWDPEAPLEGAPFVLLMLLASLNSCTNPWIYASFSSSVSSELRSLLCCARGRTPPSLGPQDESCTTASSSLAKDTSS

The term IC50 denotes the midpoint of a concentration-inhibition curve. Read a low IC50 as inhibition by little substance. For `COc1cc(C(=O)N(C)c2ccc(C)cc2OCCCCCC(=O)N2CCN(C)CC2)ccc1NC(=O)c1cccc2[nH]c(CN)nc12` [Example 39-27, 4-(2-Aminomethyl-1H-benzimidazol-4-yl)carbonylamino-3-methoxy-N-methyl-N-[4-methyl-2-[5-(4-methylpiperazin-1-yl)carbonylpent-1-yloxy]phenyl]benzamidetrihydrochloride], the figures for the IC50 (in experiment [1]; at human V2 receptor) were 1.5 nM and 460 nM, respectively.
As to `COc1cc(C(=O)N(C)c2ccc(C)cc2OCCCCCC(=O)N2CCN(C)CC2)ccc1NC(=O)c1cccc2[nH]c(CO)nc12` [Example 39-35, 4-(2-Hydroxymethyl-1H-benzimidazol-4-yl)carbonylamino-3-methoxy-N-methyl-N-[4-methyl-2-[5-(4-methylpiperazin-1-yl)carbonylpent-1-yloxy]phenyl]benzamide dihydrochloride], the IC50 in experiment [1] is < 1 nM; at human V2 receptor, 380 nM.
Regarding `COc1cc(C(=O)N(C)c2ccc(C)cc2OCCCCCC(=O)N2CCN(C)CC2)ccc1C(=O)Nc1cccc2[nH]c(C)nc12` [Example 115-71, 3-Methoxy-N-methyl-4-[2-mehtyl-1H-benzimidazol-4-yl]carbamoyl-N-[4-methyl-2-[5-(4-methylpiperazin-1-yl)-carbonylpent-1-yloxy]phenyl]benzamide dihydrochloride], in experiment [1], the IC50 came to 0.7 nM.
For the compound `COc1cc(C(=O)N(C)c2ccc(C)cc2OCCCCCC(=O)N2CCN(C)CC2)ccc1C(=O)Nc1cccc2[nH]c(CN3CCN(C)CC3)nc12` [Example 115-81, 3-Methoxy-N-methyl-N-[4-methyl-2-[5-(4-methylpiperazin-1-yl)carbonylpent-1-yloxy]phenyl]-4-[2-[(4-methyl-piperazin-1-yl)methyl]-1H-benzimidazol-4-yl]-carbamoylbenzamide trihydrochloride], the IC50 in experiment [1] was 4.5 nM.
